One block for each compound: values may come before it.
How the values were obtained:
[1] = target: T1, ROR gamma ligand-binding domain (LBD) (hRORg) (Homo sapiens, UniProt P51449); assay: GAL4-RORγ transactivation (luciferase reporter, HG5LN HeLa line); format: cell-based; settings: HG5LN HeLa line with GAL4 DBD fused to ROR gamma LBD, 18 hours incubation
T1 construct: expressed in transfected cells; host or cells: HG5LN (HeLa line with GAL4-responsive luciferase reporter)
T1 sequence (P51449 269-508 limits assumed): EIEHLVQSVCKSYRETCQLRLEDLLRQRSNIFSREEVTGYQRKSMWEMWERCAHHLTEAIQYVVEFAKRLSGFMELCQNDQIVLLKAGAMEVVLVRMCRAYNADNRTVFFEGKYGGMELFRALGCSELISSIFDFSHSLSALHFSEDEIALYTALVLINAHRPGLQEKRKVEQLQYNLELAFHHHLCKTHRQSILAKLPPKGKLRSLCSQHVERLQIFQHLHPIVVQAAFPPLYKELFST
Outline: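 HeLa HG5LN cells stably carrying a GAL4-responsive luciferase reporter and GAL4 DBD–RORγ LBD fusion; seeded 4 h, then compound 18 h at 37 °C, 5% CO2. Luminescence normalized between DMSO and saturating reference-inhibitor controls as % inhibition; IC50 from 4-parameter logistic fit.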

[2] = system: IL-17A secretion by CD4+ cells; assay: IL-17A secretion by CD4+ cells (HTRF); format: cell-based; settings: 96 h; human peripheral blood CD4+ cells activated with anti-CD3 and anti-CD28, 4 days incubation, IL-17A by HTRF; read-out: IC50 hCD4/IL17
Experimental: This model allows measurement of the effect of inhibitors on IL-17A secretion by CD4+ cells. The cells are frozen CD4+ cells (STEMCELL, #70026), isolated from peripheral human blood and activated with anti-CD3 and anti-CD28 antibodies. The amount of IL-17A secreted is measured by the TR-FRET (kit HTRF® Human Interleukin 17A (Cisbio, #64H17PEC)) technology.
The cells are rapidly thawed, resuspended in their culture medium (RPMI inactivated 10% FCS) supplemented with soluble anti-CD28 antibodies and seeded (100 000 cells/well) in 96-well plates precoated with anti-CD3 antibodies. The cells are then treated with the ranges of inhibitors to be tested (from 1000 nM to 0.05 nM, 0.1% DMSO). After 4 days of incubation, the HTRF signal is measured using a microplate reader (λexcitation=337 nm, λemission=620/665 nm). The ratios obtained (665/620) are normalized relative to the positive control (cells activated with anti-CD3 and anti-CD28, 0.1% DMSO). The IC50 values are calculated from a 4-parameter logistic model using the XLFit software (IDBS).

Structure (SMILES): CCc1ccc(N(CC(C)C)S(=O)(=O)c2ccc3c(c2)C(O)CCN3Cc2ccncc2)cc1 (stereo not drawn) [Compound 10, 4-hydroxy-1-pyridin-4-ylmethyl-1,2,3,4-tetrahydroquinoline-6-sulfonic acid (4-ethylphenyl)isobutylamide]
IC50 [1]: < 100 nM
IC50 [2]: < 100 nM

Structure (SMILES): CCc1ccc(N(CC(C)C)S(=O)(=O)c2ccc3c(c2)C(=O)CCN3CC2CCOCC2)cc1 [Compound 1, 4-oxo-1-(tetrahydropyran-4-ylmethyl)-1,2,3,4-tetrahydroquinoline-6-sulfonic acid (4-ethylphenyl)isobutylamide]
IC50 [1]: 100 to 1000 nM
IC50 [2]: 100 to 1000 nM

Structure (SMILES): CCc1ccc(N(CC(C)C)S(=O)(=O)c2ccc3c(c2)C(O)CCN3CC2CC(O)C2)cc1 (mixture of isomers) [Compound 20, 4-hydroxy-1-(3-hydroxycyclobutylmethyl)-1,2,3,4-tetrahydroquinoline-6-sulfonic acid (4-ethylphenyl)isobutylamide]
IC50 [1]: 100 to 1000 nM
IC50 [2]: < 100 nM

Structure (SMILES): CCc1ccc(N(CC(C)C)S(=O)(=O)c2ccc3c(c2)C(=O)CCN3Cc2ccncc2)cc1 [Compound 4, 4-oxo-1-pyridin-4-ylmethyl-1,2,3,4-tetrahydroquinoline-6-sulfonic acid (4-ethylphenyl)isobutylamide]
IC50 [1]: < 100 nM
IC50 [2]: < 100 nM

Continued, values first:

IC50 [1]: < 100 nM
IC50 [2]: < 100 nM
Structure (SMILES): CCc1ccc(N(CC(C)C)S(=O)(=O)c2ccc3c(c2)C(O)CCN3C[C@H]2[C@@H]3COC[C@@H]32)cc1 (stereo partly drawn) [Compound 37, 4-hydroxy-1-[(1S,5R,6S)-1-(3-oxabicyclo[3.1.0]hex-6-yl)methyl]-1,2,3,4-tetrahydroquinoline-6-sulfonic acid (4-ethylphenyl)isobutylamide]

IC50 [1]: 100 to 1000 nM
IC50 [2]: < 100 nM
Structure (SMILES): CCc1ccc(N(CC(C)C)S(=O)(=O)c2ccc3c(c2)C(O)CCN3CC2CCOCC2)cc1 (single isomer, unassigned) [Enantiomer 2, 4-hydroxy-1-(tetrahydropyran-4-ylmethyl)-1,2,3,4-tetrahydroquinoline-6-sulfonic acid (4-ethylphenyl)isobutylamide]

— US10550110B2, “Tetrahydroquinoline sulfonamide derivatives as inverse agonists of retinoid-related orphan receptor gamma (ROR gamma (t))” (GALDERMA RESEARCH & DEVELOPMENT, priority 2014, dated 2020)
